According to patent publication US6737383B1, “Herbicidal oxadiazolidines” (priority 1999, dated 2004):

Key:
[1] = tested on: common pursiane; test: Test D common purslane; format: in vivo, Portulaca oleracea; settings: Preemergence, 0 to 100 scale
Text: (§1) Seeds, tubers, or plant parts of Alexandergrass (Brachiaria plantaginea), bermuda-grass (Cynodon dactylon), common pursiane (Portulaca oleracea), common ragweed (Ambrosia elatior), common groundsel (Senecio vulgaris), dallisgrass (Paspalum dilatatum), goosegrass (Eleusine indica), guineagrass (Panicum maximum), itchgrass (Rottboellia exaltata), Johnson grass (Sorghum halepense), large crabgrass (Digitaria sanguinalis), pitted morningglory (Ipomoea lacunosa), purple nutsedge (Cyperus rotundus), sandbur (Cenchrus echinatus), sourgrass (Trichachne insularis), Spanishneedles (Bidens bipinnata), surinam grass (Brachiaria decumbens) and tall mallow (Malva sylvestris) were planted into greenhouse pots of flats containing greenhouse planting medium. Plant species were grown in separate pots or individual compartments. Preemergence applications were made within one day of planting the seed or plant part.
(§2) Test chemicals were formulated in a non-phytotoxic solvent mixture which included a surfactant and applied preemergence to the surface of the pot containing seeds in a sandy loam soil. Untreated control pots and treated pots were placed in the greenhouse for growth and visually evaluated for injury 14 to 21 days after herbicide application. Plant response ratings, summarized in Table C, are based on a 0 to 100 scale where 0 is no injury and 100 is complete control. A dash (−) response means no test result.

[2] = tested on: purple nutsedge; test: Test D purple nutsedge; format: in vivo, Cyperus rotundus; settings: Preemergence, 0 to 100 scale
Text: as §1, §2

[3] = tested on: goosegrass; test: Test D goosegrass; format: in vivo, Eleusine indica; settings: Preemergence, 0 to 100 scale
In short: (§3)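 Greenhouse pots, seeds in sandy loam; compounds formulated in non-phytotoxic solvent with surfactant; preemergence treatments went on the soil surface within one day of planting. Injury rated visually 14 to 21 days after application on a 0 (none) to 100 (complete control) scale.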

[4] = tested on: sandbur; test: Test D sandbur; format: in vivo, Cenchrus echinatus; settings: Preemergence, 0 to 100 scale
Text: as §1, §2

[5] = tested on: surinam grass; test: Test D surinam grass; format: in vivo, Brachiaria decumbens; settings: Preemergence, 0 to 100 scale
In short: as §3

[6] = tested on: Johnson grass; test: Test D Johnson grass; format: in vivo, Sorghum halepense; settings: Preemergence, 0 to 100 scale
In short: as §3

[7] = tested on: common groundsel; test: Test D common groundsel; format: in vivo, Senecio vulgaris; settings: Preemergence, 0 to 100 scale
Text: as §1, §2

[8] = tested on: Green foxtail; test: Test D green foxtail; format: in vivo; settings: Rate 250 g/ha; Postemergence; 0 to 100 scale
[9] = tested on: sandbur; test: Test D sandbur; format: in vivo, Cenchrus echinatus; settings: Postemergence, 0 to 100 scale
[10] = tested on: purple nutsedge; test: Test D purple nutsedge; format: in vivo, Cyperus rotundus; settings: Postemergence, 0 to 100 scale
[11] = tested on: Alexandergrass; test: Test D Alexandergrass; format: in vivo, Brachiaria plantaginea; settings: Postemergence, 0 to 100 scale
[12] = tested on: Green foxtail; test: Test D green foxtail; format: in vivo; settings: Postemergence, 0 to 100 scale, 0 no injury, 100 complete control
[13] = tested on: common pursiane; test: Test D common purslane; format: in vivo, Portulaca oleracea; settings: Postemergence, 0 to 100 scale
[14] = tested on: itchgrass; test: Test D itchgrass; format: in vivo, Rottboellia exaltata; settings: Postemergence, 0 to 100 scale
[15] = tested on: pitted morningglory; test: Test D pitted morningglory; format: in vivo, Ipomoea lacunosa; settings: Postemergence, 0 to 100 scale
[16] = tested on: tall mallow; test: Test D tall mallow; format: in vivo, Malva sylvestris; settings: Postemergence, 0 to 100 scale
[17] = tested on: surinam grass; test: Test D surinam grass; format: in vivo, Brachiaria decumbens; settings: Postemergence, 0 to 100 scale
[18] = tested on: common groundsel; test: Test D common groundsel; format: in vivo, Senecio vulgaris; settings: Postemergence, 0 to 100 scale
[19] = tested on: Green foxtail; test: Test D green foxtail; format: in vivo; settings: Rate 250 g/ha; Postemergence; 0 to 100 scale; remark: listed apart in the source
[20] = tested on: guineagrass; test: Test D guineagrass; format: in vivo, Panicum maximum; settings: Postemergence, 0 to 100 scale
[21] = tested on: bermuda-grass; test: Test D bermudagrass; format: in vivo, Cynodon dactylon; settings: Postemergence, 0 to 100 scale
[22] = Rate 32 g/ha, 0 no injury, 100 complete control
[23] = Rate 64 g/ha, 0 no injury, 100 complete control
[24] = Rate 125 g/ha, 0 no injury, 100 complete control
[25] = Rate 16 g/ha, 0 no injury, 100 complete control

Cc1ccc(-n2c(=O)on(C(=O)N(c3ccc(F)cc3F)C(C)C)c2=O)c(C)c1 [Compound 24]
Plant response rating, C. purslane [1, 22]: 0 | Plant response rating, C. purslane [1, 23]: 0 | Plant response rating, C. purslane [1, 24]: 0 | Plant response rating, C. purslane ([1]; Rate 250 g/ha): 0 | Plant response rating, C. purslane ([1]; Rate 500 g/ha): 0 | Plant response rating, Purple nutsedge [2, 22]: 0 | Purple nutsedge plant response rating [2, 23]: 0 | Purple nutsedge plant response rating [2, 24]: 0 | Plant response rating, Purple nutsedge ([2]; Rate 250 g/ha): 0 | Plant response rating, Purple nutsedge ([2]; Rate 500 g/ha): 0 | Plant response rating, Goosegrass [3, 22]: 50 | Plant response rating, Goosegrass [3, 23]: 50 | Plant response rating, Goosegrass [3, 24]: 98 | Plant response rating, Goosegrass ([3]; Rate 250 g/ha): 98 | Plant response rating, Goosegrass ([3]; Rate 500 g/ha): 100 | Plant response rating, Sandbur [4, 22]: 20 | Sandbur plant response rating [4, 23]: 20 | Sandbur plant response rating [4, 24]: 20 | Plant response rating, Sandbur ([4]; Rate 250 g/ha): 20 | Plant response rating, Sandbur ([4]; Rate 500 g/ha): 100 | Plant response rating, Surinam grass [5, 22]: 10 | Surinam grass plant response rating [5, 23]: 10 | Surinam grass plant response rating [5, 24]: 10 | Plant response rating, Surinam grass ([5]; Rate 250 g/ha): 10 | Plant response rating, Surinam grass ([5]; Rate 500 g/ha): 65 | Plant response rating, Johnsongrass [6, 22]: 0 | Plant response rating, Johnsongrass [6, 23]: 0 | Plant response rating, Johnsongrass [6, 24]: 0 | Plant response rating, Johnsongrass ([6]; Rate 250 g/ha): 85 | Plant response rating, Johnsongrass ([6]; Rate 500 g/ha): 85 | Plant response rating, Com. groundsel [7, 22]: 0 | Plant response rating, Com. groundsel [7, 23]: 0 | Plant response rating, Com. groundsel [7, 24]: 0 | Plant response rating, Com. groundsel ([7]; Rate 250 g/ha): 0 | Plant response rating, Com. groundsel ([7]; Rate 500 g/ha): 0

CC(C)N(C(=O)n1oc(=O)n(C(C)C)c1=O)c1ccccc1 [Compound 113]
Plant response rating, C. purslane [1, 25]: 0 | Plant response rating, C. purslane [1, 22]: 0 | Plant response rating, C. purslane [1, 23]: 0 | Plant response rating, C. purslane [1, 24]: 0 | Plant response rating, Purple nutsedge [2, 25]: 0 | Plant response rating, Purple nutsedge [2, 22]: 0 | Purple nutsedge plant response rating [2, 23]: 20 | Purple nutsedge plant response rating [2, 24]: 30 | Plant response rating, Goosegrass [3, 25]: 90 | Plant response rating, Goosegrass [3, 22]: 100 | Plant response rating, Goosegrass [3, 23]: 100 | Plant response rating, Goosegrass [3, 24]: 100 | Plant response rating, Sandbur [4, 25]: 0 | Plant response rating, Sandbur [4, 22]: 65 | Sandbur plant response rating [4, 23]: 75 | Sandbur plant response rating [4, 24]: 100 | Plant response rating, Surinam grass [5, 25]: 85 | Plant response rating, Surinam grass [5, 22]: 90 | Surinam grass plant response rating [5, 23]: 98 | Surinam grass plant response rating [5, 24]: 100 | Plant response rating, Johnsongrass [6, 25]: 0 | Plant response rating, Johnsongrass [6, 22]: 60 | Plant response rating, Johnsongrass [6, 23]: 80 | Plant response rating, Johnsongrass [6, 24]: 90 | Plant response rating, Com. groundsel [7, 25]: 0 | Plant response rating, Com. groundsel [7, 22]: 65 | Plant response rating, Com. groundsel [7, 23]: 100 | Plant response rating, Com. groundsel [7, 24]: 100

CC(C)N(C(=O)n1oc(=O)n(CC2CCCO2)c1=O)c1ccc(F)cc1 (stereo not drawn) [Compound 343]
Plant response rating, Green foxtail [8]: 100 | Plant response rating, Sandbur [9, 25]: 0 | Plant response rating, Sandbur [9, 22]: 0 | Sandbur plant response rating [9, 23]: 0 | Sandbur plant response rating [9, 24]: 50 | Plant response rating, Sandbur ([9]; Rate 250 g/ha): 50 | Plant response rating, Purple nutsedge [10, 25]: 0 | Plant response rating, Purple nutsedge [10, 22]: 0 | Purple nutsedge plant response rating [10, 23]: 0 | Purple nutsedge plant response rating [10, 24]: 0 | Plant response rating, Purple nutsedge ([10]; Rate 250 g/ha): 0 | Plant response rating, Alexandergrass [11, 25]: 0 | Plant response rating, Alexandergrass [11, 22]: 0 | Plant response rating, Alexandergrass [11, 23]: 50 | Plant response rating, Alexandergrass [11, 24]: 100 | Plant response rating, Alexandergrass ([11]; Rate 250 g/ha): 100 | Plant response rating, Green foxtail ([12]; Rate 16 g/ha): 0 | Plant response rating, Green foxtail ([12]; Rate 32 g/ha): 100 | Plant response rating, C. purslane [13, 25]: 0 | Plant response rating, C. purslane [13, 22]: 0 | Plant response rating, C. purslane [13, 23]: 0 | Plant response rating, C. purslane [13, 24]: 0 | Plant response rating, C. purslane ([13]; Rate 250 g/ha): 0 | Plant response rating, Itchgrass [14, 25]: 0 | Plant response rating, Itchgrass [14, 22]: 0 | Plant response rating, Itchgrass [14, 23]: 20 | Plant response rating, Itchgrass [14, 24]: 20 | Plant response rating, Itchgrass ([14]; Rate 250 g/ha): 30 | Plant response rating, P. morninglory [15, 25]: 0 | Plant response rating, P. morninglory [15, 22]: 0 | Plant response rating, P. morninglory [15, 23]: 0 | Plant response rating, P. morninglory [15, 24]: 0 | Plant response rating, P. morninglory ([15]; Rate 250 g/ha): 0 | Plant response rating, Tall Mallow [16, 25]: 0 | Plant response rating, Tall Mallow [16, 22]: 0 | Tall Mallow plant response rating [16, 23]: 0 | Tall Mallow plant response rating [16, 24]: 0 | Plant response rating, Tall Mallow ([16]; Rate 250 g/ha): 30 | Plant response rating, Surinam grass [17, 25]: 0 | Plant response rating, Surinam grass [17, 22]: 20 | Surinam grass plant response rating [17, 23]: 20 | Surinam grass plant response rating [17, 24]: 70 | Plant response rating, Surinam grass ([17]; Rate 250 g/ha): 100 | Plant response rating, Com. groundsel [18, 25]: 0 | Plant response rating, Com. groundsel [18, 22]: 40 | Plant response rating, Com. groundsel [18, 23]: 100 | Plant response rating, Com. groundsel [18, 24]: 100 | Plant response rating, Com. groundsel ([18]; Rate 250 g/ha): 100 | Plant response rating, Green foxtail [19]: 100 | Plant response rating, Guineagrass [20, 25]: 0 | Plant response rating, Guineagrass [20, 22]: 0 | Guineagrass plant response rating [20, 23]: 80 | Plant response rating, Guineagrass [20, 23]: 0 | Plant response rating, Guineagrass [20, 24]: 50 | Plant response rating, Guineagrass ([20]; Rate 250 g/ha): 100 | Plant response rating, Bermudagrass [21, 25]: 0 | Plant response rating, Bermudagrass [21, 22]: 80 | Plant response rating, Bermudagrass [21, 23]: 60 | Plant response rating, Bermudagrass [21, 24]: 100 | Plant response rating, Bermudagrass ([21]; Rate 250 g/ha): 100
